Where a name gives a salt, the structure may show the parent alone.
Experiments:
[1] = system: experimental autoimmune encephalomyelitis (EAE); test: rat monophasic EAE model, DMF pilot experiment; assay type: in vivo, Female Lewis rats; conditions: first pilot experiment, dose 120 mg/kg q.d. from day 0
Description: The efficacy of dimethyl fumarate (DMF) in acute monophasic models of experimental autoimmune encephalomyelitis (EAE) can be determined in a pilot experiment.
Female Lewis rats are immunized with an emulsion of myelin basic protein (MBP) from Guinea pig in complete Freund's adjuvant. A total of 200 micrograms of MBP is injected per rat at two sites subcutaneously (right paw and base of tail). Within 10 days the rats develop signs of paralysis which will be graded on a scale from 0 to 15 assessing the tail and each limb individually according to the method originally described by Weaver A. et al., FASEB J., 2005, 19(12): 1668-1670. The disease takes an acute monophasic course and is self-remitting. Usually by day 21 clinical scores reach values below 3.0.
Groups of 10 to 14 rats are dosed starting at the day of disease induction (day 0) with different doses of DMF in the range between 40 and 160 mg/kg once daily (q.d.). Clinical scores are assessed on a daily basis and disease development is compared between vehicle-treated rats and rats receiving DMF (vehicle: 0.5% Methylcellulose/0.5% Tween® 80). In parallel, body weights of the rats are monitored on a daily basis to follow general health. The experiment is terminated at day 21 whereupon hematology can be measured.
Plasma samples can be taken for compound concentration determination and for the measurement of protein markers. […]

[2] = system: experimental autoimmune encephalomyelitis (EAE); test: combination efficacy experiment in rat EAE model; assay type: in vivo, Female Lewis rats; conditions: FIG. 1, DMF 120 mg/kg q.d., ponesimod 100 mg/kg q.d., from day 0; for effect on clinical course of EAE (clinical score): n=11/group
Description: FIG. 1: Efficacy of ponesimod, DMF or its combination in rat EAE (n=11/group). Clinical scoring was performed daily by an independent examiner in a blinded manner. SEM=standard error of the mean. Female Lewis rats are immunized with an emulsion of myelin basic protein (MBP) from Guinea pig in complete Freund's adjuvant. A total of 200 micrograms of MBP is injected per rat at two sites subcutaneously (right paw and base of tail). Within 10 days the rats develop signs of paralysis which will be graded on a scale from 0 to 15 assessing the tail and each limb individually according to the method originally described by Weaver A. et al., FASEB J., 2005, 19(12): 1668-1670. The disease takes an acute monophasic course and is self-remitting. Usually by day 21 clinical scores reach values below 3.0. Groups of 10 to 14 rats are dosed starting at the day of disease induction (day 0) with different doses of DMF in the range between 40 and 160 mg/kg once daily (q.d.). Clinical scores are assessed on a daily basis and disease development is compared between vehicle-treated rats and rats receiving DMF (vehicle: 0.5% Methylcellulose/0.5% Tween® 80). In parallel, body weights of the rats are monitored on a daily basis to follow general health. The experiment is terminated at day 21 whereupon hematology can be measured. The combination efficacy experiment is performed in the same rat EAE model as described for the first pilot experiment. It consists of four treatment groups: • 1. Vehicle (0.5% Methylcellulose/0.5% Tween® 80) q.d., from day 0 • 2. DMF (120 mg/kg) q.d., from day 0 • 3. Ponesimod (100 mg/kg) q.d., from day 0 • 4. DMF (120 mg/kg) q.d., from day 0+ponesimod (100 mg/kg) q.d., from day 0 In life and termination endpoints are the same as described for the first pilot experiment.

[3] = system: lymphocyte count in peripheral blood; test: ponesimod pilot experiment, lymphocyte count in peripheral blood; assay type: in vivo; conditions: second pilot experiment, healthy female Lewis rats, dose 100 mg/kg
Description: In parallel to the measurement of efficacy of DMF in the EAE model, a second pilot experiment is required. Healthy female Lewis rats will receive ponesimod at different doses in the range from 0.3 to 100 mg/kg. The goal is to assess the dose-effect relationship of ponesimod on lymphocyte count in peripheral blood in this strain of rat.

[4] = system: moderate to severe chronic plaque psoriasis; relapsing-remitting multiple sclerosis; conditions: patients with moderate to severe chronic plaque psoriasis and with relapsing-remitting multiple sclerosis; cited from earlier work
[5] = system: peripheral blood lymphocytes; conditions: oral administration; cited from earlier work

Compound | efficacy on EAE scores [1] | effect on clinical score from day 16 onwards ([2]; from day 16 onwards) | effect on clinical course of EAE (clinical score) [2] | efficacy on lymphocyte count reduction [3] | clinical benefit in phase II trials [4] | number of peripheral blood lymphocytes [5]
COC(=O)/C=C/C(=O)OC [DMF, dimethyl fumarate] | partial efficacy between none and strongest efficacy | no effect on clinical score anymore | moderate effect during the ascending phase of the disease | – | – | –
CCC/N=C1\S/C(=C\c2ccc(OC[C@H](O)CO)c(Cl)c2)C(=O)N1c1ccccc1C [ponesimod, (R)-5-[3-chloro-4-(2,3-dihydroxy-propoxy)-benz[Z]ylidene]-2-([Z]-propylimino)-3-o-tolyl-thiazolidin-4-one] | – | – | marked and statistically significant effect | full efficacy on lymphocyte count reduction | has shown clinical benefit | consistent, sustained, and dose-dependent reduction
